Assays:
CDK6 [1] = molecular target: T1, CDK6 (Homo sapiens, UniProt Q00534); test: Isothermal titration calorimetry of EA with CDK6; settings: ITC, 25 °C, one binding site model; read-out: Ka (binding constant) (converted)
T1 construct: The 981-bp coding region (326 amino acids) was amplified by PCR from plasmid pcDNA containing the CDK6 gene; His-tag; made in house; host or cells: E. coli BL21 (codon+), pET28a+ (NcoI/XhoI)
Experimental: ITC measurements were carried out at 25 °C using a VP-ITC microcalorimeter (MicroCal, Inc, GE, MicroCal, USA). The sample cell was filled with 15–20 µM CDK6 and 500 µM EA solution was filled in the syringe. An automated titration was carried out with (including a first false injection of 2 μL) a successive injection of 10 μL EA solution into a CDK6 sample cell at a 260 s interval with 320 rpm stirring speed. For analysis, the heat of dilution of EA in the sample buffer was subtracted from the titration data. MicroCal Origin 8.0 was used to analyze the stoichiometry of binding (n), enthalpy change (ΔH), an association constant (Ka).

CDK6 [2] = molecular target: T1, CDK6; test: Fluorescence binding (quenching) study with recombinant CDK6; settings: for Ksv: Stern-Volmer plot; for ΔG°: van 't Hoff equation
Experimental: To study the binding affinity of EA with the recombinant CDK6, a fluorescence binding study was performed. CDK6 was titrated with the EA and corresponding emission spectra were recorded in the range of 300–400 nm after carrying out excitation at 280 nm. The inner filter effect was corrected for the obtained intensities. Fluorescence emission spectra were analyzed by the Stern-Volmer equation to find Stern-Volmer constant (Ksv) and modified Stern-Volmer equation to estimate the binding constant (K) and the number of binding sites (n). Other binding features were estimated by our previously described protocol.
With each reaction, changes in enthalpy and entropy are associated, which are evidence of the type of reaction taking place. Equation (1) (“van ’t Hoff equation”) was employed to calculate the thermodynamic parameters associated with this binding, (1) ΔG°=−RTLnK=ΔH°−TΔS°

CDK6 [3] = test: CDK6 expression study (immunoblotting); assay type: cell-based, human; settings: EA-treated vs vehicle control, immunoblot
Experimental: The cell lysates of EA-treated/untreated MCF-7 and MDA-MB-231 cell lines were prepared using RIPA cell lysis buffer (Thermo Fisher Scientific (USA)) and total protein was isolated. The amount of protein was quantified by a BCA-protein estimation kit. Nearly, 50–60 μg of total protein was subjected for SDS-PAGE, and obtained bands were blotted to polyvinylidene fluoride membrane. The protein of interest was identified using respective primary antibodies and horseradish peroxidase (HRP) conjugated secondary IgG using the luminol method.

MCF-7 cells [4] = test: Apoptosis assay (Annexin-V staining, flow cytometry); assay type: cell-based, human; settings: MCF-7, IC50 concentration of EA, 48 h
MDA-MB-231 cells [5] = test: as above; assay type: cell-based, human; settings: MDA-MB-231, IC50 concentration of EA, 48 h
CDK6 [6] = molecular target: T1, CDK6; test: ATPase enzyme inhibition assay (malachite green); assay type: biochemical; settings: CDK6 1 µM, ATP 50 µM, 25 °C, 1 h, AAT Bioquest calculator
Experimental: ATPase assay was performed to see the CDK6 inhibitory activity of EA [57]. For a typical kinase reaction, freshly prepared ATP (50 µM) was incubated with CDK6 (1 µM) in a reaction volume of 100 μL and incubated at 25 °C for 1 h. Similar reactions were set up with the increasing concentration of EA. Malachite green (200 μL) was further added to the reaction mixture to stop the reaction followed by incubation of samples at room temperature for 20–25 min for the development of color. The absorbance of the final reaction product was measured spectrophotometrically at 620 nm.

MCF-7 cells [7] = test: Cell viability MTT assay; assay type: cell-based; settings: Homo sapiens, MCF7, MCF-7, 48 h (Figure 8 legend; method says 72 h), mean ± SD n = 3
Experimental: (§1) Cell viabilities of cancer cells with or without EA were evaluated using MTT assay. Briefly, the selected cells (MCF-7 and MDA-MB-231) were seeded in a 96-well (5000–6000 cells/well) culture plate. Overnight grown cells were incubated with EA (0–250 μM) for 72 h in a CO2 incubator, at 37 °C. After a stipulated time of treatment, 20 µL of MTT (from 5 mg/mL stock solution in PBS, pH 7.4) was added to each treatment well of 96-well plate, and plates with MTT solution were incubated additionally for 4–5 h, in the CO2 incubator. Lastly, the formazan were solubilized by adding 100 µL of DMSO to each well. The absorbance (A) of the dissolved purple reaction solution was measured at 570 nm. Absorption readings were converted into percent cell viability and used to estimate 50% inhibitory concentration (IC50) of EA for selected cancer cells.

MDA-MB-231 cells [8] = test: Cell viability MTT assay; assay type: cell-based; settings: Homo sapiens, MDA-MB-231, 48 h (Figure 8 legend; method says 72 h), mean ± SD n = 3
Experimental: as §1

MCF-7 cells [9] = test: Colony formation assay; assay type: cell-based, human; settings: MCF-7, IC50 concentration of EA, 10–12 days, vs vehicle control
Experimental: (§2) To perceive the effect of EA treatment on the colonogenic potential of selected cell lines colony formation studies were performed as described previously. Briefly, ~1500–2000 (MCF-7/MDA-MB-231 cells) cells/well were seeded (in triplicates) in each well of a 6-well cell culture plate. The cells were grown in complete cell growth medium for 48 h and incubated with respective IC50 concentrations of EA for 10–12 days, (at 37 °C, in a 5% CO2 incubator). On the other hand, the control cells were incubated with vehicle control (DMSO) under similar experimental conditions. After 10–12 days, the colonies of cells were fixed with 100% methanol and subsequently stained using a 0.4% crystal violet solution (prepared in 25% methanol. Finally, the colonies obtained after staining were photographed, quantified, plotted, and analyzed by comparing with vehicle control.

MDA-MB-231 cells [10] = test: Colony formation assay; assay type: cell-based, human; settings: MDA-MB-231, IC50 concentration of EA, 10–12 days, vs vehicle control
Experimental: as §2

[11] = van 't Hoff plot over 298, 301, 303 K (same value printed at each temperature)

T1 sequence (Q00534 whole entry): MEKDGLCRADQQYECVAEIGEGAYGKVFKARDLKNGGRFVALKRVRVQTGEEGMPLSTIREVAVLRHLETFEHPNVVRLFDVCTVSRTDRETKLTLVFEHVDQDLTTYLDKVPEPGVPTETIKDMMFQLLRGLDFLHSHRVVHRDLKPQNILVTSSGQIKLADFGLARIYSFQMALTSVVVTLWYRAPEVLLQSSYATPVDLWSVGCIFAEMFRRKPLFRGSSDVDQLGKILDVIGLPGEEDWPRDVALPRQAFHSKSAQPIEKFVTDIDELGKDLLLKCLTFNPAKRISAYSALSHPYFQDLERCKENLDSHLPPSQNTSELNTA

## O=c1oc2c(O)c(O)cc3c(=O)oc4c(O)c(O)cc1c4c23 [EA, ellagic acid]
CDK6 [1]
  Kd: 39.7 µM
CDK6 [2]; 298 K
  Kq (bimolecular quenching rate constant): 5.8 10^12 M^−1s^−1
  TΔS°: 84.60 kcal/mol
  Ksv: 5.8 10^4 M^−1
  ΔG°: -8.73 kcal/mol
CDK6 [2]; 301 K
  Kq (bimolecular quenching rate constant): 14.2 10^12 M^−1s^−1
  TΔS°: 85.45 kcal/mol
  Ksv: 14.2 10^4 M^−1
  ΔG°: -9.59 kcal/mol
CDK6 [2]; 303 K
  Kq (bimolecular quenching rate constant): 19.8 10^12 M^−1s^−1
  TΔS°: 86.02 kcal/mol
  Ksv: 19.8 10^4 M^−1
  ΔG°: -10.16 kcal/mol
CDK6 [2]; fluorescence quenching, modified Stern-Volmer, 303 K
  binding constant (K): 2.6e+07 M⁻¹
CDK6 [2]; fluorescence quenching, modified Stern-Volmer, 303 K, read-out: binding constant (K)
  Kd: 100 nM
CDK6 [2]; modified Stern-Volmer, 298 K
  n (number of binding sites): 1.32
CDK6 [2]; modified Stern-Volmer, 298 K, read-out: K (binding constant) (converted)
  Kd: 345 nM
CDK6 [2]; modified Stern-Volmer, 301 K
  n (number of binding sites): 1.16
CDK6 [2]; modified Stern-Volmer, 301 K, read-out: K (binding constant) (converted)
  Kd: 154 nM
CDK6 [2]; modified Stern-Volmer, 303 K
  n (number of binding sites): 1.41
CDK6 [2]; modified Stern-Volmer, 303 K, read-out: K (binding constant) (converted)
  Kd: 38.5 nM
CDK6 [2]; [11]
  ΔH°: 75.8657 kcal/mol
  ΔS: 283.9087 cal.mol^−1K^−1
CDK6 [3]; MCF-7 cells
  expression of CDK6: decreases the expression of CDK6
CDK6 [3]; MDA-MB-231 cells
  expression of CDK6: decreases the expression of CDK6
MCF-7 cells [4]
  Annexin-V positive cells (apoptosis): 23.3%
MDA-MB-231 cells [5]
  Annexin-V positive cells (apoptosis): 27.9%
CDK6 [6]
  IC50: 3.05 µM
MCF-7 cells [7]
  IC50: 29.1 ± 1.15 µM
MDA-MB-231 cells [8]
  IC50: 20.5 ± 1.22 µM
MCF-7 cells [9]
  number of colonies: decreases the number of colonies significantly
MDA-MB-231 cells [10]
  number of colonies: decreases the number of colonies significantly
